Experimental data reported in patent US11541055B2, “Inhibitors of human immunodeficiency virus replication” (ViiV Healthcare UK (No. 5) LIMITED, priority 2018, dated 2023).

Key:
[1] = Compound cytotoxicity, XTT-based colorimetric assay; assay type: cell-based; details: human; uninfected MT2 cells, day 4, XTT
Summary of the method: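 Run under the antiviral-assay protocol but without virus. Viability was read on day 4 and CC50 values were derived from the readout.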

[2] = tested on: recombinant NL4-3 virus (Renilla luciferase) in MT-2 cells; assay: HIV cell culture assay (antiviral activity, luciferase readout); assay type: cell-based; details: Renilla, NL43
Summary of the method: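 MT-2 cells were infected with recombinant NL4-3 virus carrying Renilla luciferase in place of part of nef. Cells were cultured 4–5 days with serially diluted compound, and luciferase was measured with a live-cell substrate. EC50 was calculated from the median effect equation.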

Compound | CC50 at 4 days [1] | EC50 [2]
COCc1nccc(-c2ccc3c(=O)n(-c4ccc(Cl)c5c(NS(C)(=O)=O)nn(C)c45)c([C@H](Cc4cc(F)cc(F)c4)NC(=O)Cn4nc(C(F)F)c5c4C(F)(F)[C@@H]4C[C@H]54)nc3c2)n1 (atropisomer, axis not shown; (P)) [Example 74, N—((S)-1-((3P)-3-(4-chloro-1-methyl-3-(methylsulfonamido)-1H-indazol-7-yl)-7-(2-(methoxymethyl)pyrimidin-4-yl)-4-oxo-3,4-dihydroquinazolin-2-yl)-2-(3,5-difluorophenyl)ethyl)-2-((3bS,4aR)-3-(difluoromethyl)-5,5-difluoro-3b,4,4a,5-tetrahydro-1H-cyclopropa[3,4]cyclopenta[1,2-c]pyrazol-1-yl)acetamide] | > 500 nM | 0.079 nM
Cn1nc(NS(C)(=O)=O)c2c(Cl)ccc(-n3c([C@H](Cc4cc(F)cc(F)c4)NC(=O)Cn4nc(C(F)F)c5c4C(F)(F)[C@@H]4C[C@H]54)nc4cc(-c5cc(C(F)(F)F)ccn5)ccc4c3=O)c21 (atropisomer, axis not shown; (P)) [Example 80, N—((S)-1-((3P)-3-(4-chloro-1-methyl-3-(methylsulfonamido)-1H-indazol-7-yl)-4-oxo-7-(4-(trifluoromethyl)pyridin-2-yl)-3,4-dihydroquinazolin-2-yl)-2-(3,5-difluorophenyl)ethyl)-2-((3bS,4aR)-3-(difluoromethyl)-5,5-difluoro-3b,4,4a,5-tetrahydro-1H-cyclopropa[3,4]cyclopenta[1,2-c]pyrazol-1-yl)acetamide] | > 100 nM | 0.2 nM
Cc1nc(C)c(C)c(-c2ccc3c(=O)n(-c4ccc(Cl)c5c(NS(C)(=O)=O)nn(CC(F)(F)F)c45)c([C@H](Cc4cc(F)cc(F)c4)NC(=O)Cn4nc(C(F)F)c5c4C(F)(F)[C@@H]4C[C@H]54)nc3c2)n1 (atropisomer, axis not shown) [Example 109, N-[(1S)-1-{3-[4-chloro-3-methanesulfonamido-1-(2,2,2-trifluoroethyl)-1H-indazol-7-yl]-4-oxo-7-(2,5,6-trimethylpyrimidin-4-yl)-3,4-dihydroquinazolin-2-yl}-2-(3,5-difluorophenyl)ethyl]-2-[(2S,4R)-9-(difluoromethyl)-5,5-difluoro-7,8-diazatricyclo[4.3.0.0^2,^4]nona-1(6),8-dien-7-yl]acetamide] | > 500 nM | 0.11 nM
CCc1cc(C)nc(-c2ccc3c(=O)n(-c4ccc(Cl)c5c(NS(C)(=O)=O)nn(CC(F)F)c45)c([C@H](Cc4cc(F)cc(F)c4)NC(=O)Cn4nc(C(F)F)c5c4C(F)(F)[C@@H]4C[C@H]54)nc3c2)n1 (atropisomer, axis not shown) [Example 126, N-[(1S)-1-{3-[4-chloro-1-(2,2-difluoroethyl)-3-methanesulfonamido-1H-indazol-7-yl]-7-(4-ethy1-6-methylpyrimidin-2-y1)-4-oxo-3,4-dihydroquinazolin-2-yl}-2-(3,5-difluorophenyl)ethyl]-2-[(2S,4R)-9-(difluoromethyl)-5,5-difluoro-7,8-diazatricyclo[4.3.0.0^2,^4]nona-1(6),8-dien-7-yl]acetamide] | > 500 nM | 0.12 nM
Cc1cc(C)nc(-c2ccc3c(=O)n(-c4ccc(Cl)c5c(NS(C)(=O)=O)nn(CC(F)(F)F)c45)c([C@H](Cc4cc(F)cc(F)c4)NC(=O)Cn4nc(C(F)F)c5c4C(F)(F)[C@@H]4C[C@H]54)nc3c2)c1 (atropisomer, axis not shown) [Example 101, N-[(1S)-1-{3-[4-chloro-3-methanesulfonamido-1-(2,2,2-trifluoroethyl)-1H-indazol-7-yl]-7-(4,6-dimethylpyridin-2-yl)-4-oxo-3,4-dihydroquinazolin-2-yl}-2-(3,5-difluorophenyl)ethyl]-2-[(2S,4R)-9-(difluoromethyl)-5,5-difluoro-7,8-diazatricyclo[4.3.0.0^2,^4]nona-1(6),8-dien-7-yl]acetamide] | > 500 nM | 0.21 nM
COc1ccc(-c2ccc3c(=O)n(-c4ccc(Cl)c5c(NS(C)(=O)=O)nn(C)c45)c([C@H](Cc4cc(F)cc(F)c4)NC(=O)Cn4nc(C(F)F)c5c4C(F)(F)[C@@H]4C[C@H]54)nc3c2)nn1 (atropisomer, axis not shown; (P)) [Example 7, N—((S)-1-((3P)-3-(4-chloro-1-methyl-3-(methylsulfonamido)-1H-indazol-7-yl)-7-(6-methoxypyridazin-3-yl)-4-oxo-3,4-dihydroquinazolin-2-yl)-2-(3,5-difluorophenyl)ethyl)-2-((3bS,4aR)-3-(difluoromethyl)-5,5-difluoro-3b,4,4a,5-tetrahydro-1H-cyclopropa[3,4]cyclopenta[1,2-c]pyrazol-1-yl)acetamide] | > 500 nM | 0.053 nM
Cn1nc(NS(C)(=O)=O)c2c(Cl)ccc(-n3c([C@H](Cc4cc(F)cc(F)c4)NC(=O)Cn4nc(C(F)F)c5c4C(F)(F)[C@@H]4C[C@H]54)nc4cc(-c5nccnc5CO)ccc4c3=O)c21 (atropisomer, axis not shown; (P)) [Example 18, N—((S)-1-((3P)-3-(4-chloro-1-methyl-3-(methylsulfonamido)-1H-indazol-7-yl)-7-(3-(hydroxymethyl)pyrazin-2-yl)-4-oxo-3,4-dihydroquinazolin-2-yl)-2-(3,5-difluorophenyl)ethyl)-2-((3bS,4aR)-3-(difluoromethyl)-5,5-difluoro-3b,4,4a,5-tetrahydro-1H-cyclopropa[3,4]cyclopenta[1,2-c]pyrazol-1-yl)acetamide] | > 500 nM | 0.099 nM
CCc1nccnc1-c1ccc2c(=O)n(-c3ccc(Cl)c4c(NS(C)(=O)=O)nn(C)c34)c([C@H](Cc3cc(F)cc(F)c3)NC(=O)Cn3nc(C(F)F)c4c3C(F)(F)[C@@H]3C[C@H]43)nc2c1 (atropisomer, axis not shown; (P)) [Example 17, N—((S)-1-((3P)-3-(4-chloro-1-methyl-3-(methylsulfonamido)-1H-indazol-7-yl)-7-(3-ethylpyrazin-2-yl)-4-oxo-3,4-dihydroquinazolin-2-yl)-2-(3,5-difluorophenyl)ethyl)-2-((3bS,4aR)-3-(difluoromethyl)-5,5-difluoro-3b,4,4a,5-tetrahydro-1H-cyclopropa[3,4]cyclopenta[1,2-c]pyrazol-1-yl)acetamide] | > 500 nM | 0.11 nM
Cn1nc(NS(C)(=O)=O)c2c(Cl)ccc(-n3c([C@H](Cc4cc(F)cc(F)c4)NC(=O)Cn4nc(C(F)F)c5c4C(F)(F)[C@@H]4C[C@H]54)nc4cc(-c5ccccc5OC(F)(F)F)ccc4c3=O)c21 (atropisomer, axis not shown; (P)) [Example 14, N—((S)-1-((3P)-3-(4-chloro-1-methyl-3-(methylsulfonamido)-1H-indazol-7-yl)-4-oxo-7-(2-(trifluoromethoxy)phenyl)-3,4-dihydroquinazolin-2-yl)-2-(3,5-difluorophenyl)ethyl)-2-((3bS,4aR)-3-(difluoromethyl)-5,5-difluoro-3b,4,4a,5-tetrahydro-1H-cyclopropa[3,4]cyclopenta[1,2-c]pyrazol-1-yl)acetamide] | > 500 nM | 2.1 nM
Cc1nc(-c2ccc3c(=O)n(-c4ccc(Cl)c5c(NS(C)(=O)=O)nn(C)c45)c([C@H](Cc4cc(F)cc(F)c4)NC(=O)Cn4nc(C(F)F)c5c4C(F)(F)[C@@H]4C[C@H]54)nc3c2)cc(C(F)(F)F)n1 (atropisomer, axis not shown; (P)) [Example 63, N—((S)-1-((3P)-3-(4-chloro-1-methyl-3-(methylsulfonamido)-1H-indazol-7-yl)-7-(2-methyl-6-(trifluoromethyl)pyrimidin-4-yl)-4-oxo-3,4-dihydroquinazolin-2-yl)-2-(3,5-difluorophenyl)ethyl)-2-((3bS,4aR)-3-(difluoromethyl)-5,5-difluoro-3b,4,4a,5-tetrahydro-1H-cyclopropa[3,4]cyclopenta[1,2-c]pyrazol-1-yl)acetamide] | > 500 nM | 0.33 nM
CS(=O)(=O)Nc1nn(CC(F)(F)F)c2c(-n3c([C@H](Cc4cc(F)cc(F)c4)NC(=O)Cn4nc(C(F)F)c5c4C(F)(F)[C@@H]4C[C@H]54)nc4cc(-c5nccc(C(F)(F)F)n5)ccc4c3=O)ccc(Cl)c12 (atropisomer, axis not shown) [Example 102] | > 500 nM | 0.13 nM
COc1cccnc1-c1ccc2c(=O)n(-c3ccc(Cl)c4c(NS(C)(=O)=O)nn(C)c34)c([C@H](Cc3cc(F)cc(F)c3)NC(=O)Cn3nc(C(F)F)c4c3C(F)(F)[C@@H]3C[C@H]43)nc2c1 (atropisomer, axis not shown; (P)) [Example 11, N—((S)-1-((3P)-3-(4-chloro-1-methyl-3-(methylsulfonamido)-1H-indazol-7-yl)-7-(3-methoxypyridin-2-yl)-4-oxo-3,4-dihydroquinazolin-2-yl)-2-(3,5-difluorophenyl)ethyl)-2-((3bS,4aR)-3-(difluoromethyl)-5,5-difluoro-3b,4,4a,5-tetrahydro-1H-cyclopropa[3,4]cyclopenta[1,2-c]pyrazol-1-yl)acetamide] | > 500 nM | 0.12 nM
Cc1ccc(F)c(-c2ccc3c(=O)n(-c4ccc(Cl)c5c(NS(C)(=O)=O)nn(CC(F)F)c45)c([C@H](Cc4cc(F)cc(F)c4)NC(=O)Cn4nc(C(F)F)c5c4C(F)(F)[C@@H]4C[C@H]54)nc3c2)n1 (atropisomer, axis not shown) [Example 122] | > 500 nM | 0.08 nM
